The values below come from US5756527A, “Imidazole derivatives useful as modulators of multi drug resistances” (Ontogen Corporation, priority 1997, dated 1998).

In general, EC50 refers to the midpoint of the concentration-response curve.

The subject of data set [1] is CEM/VLB1000. Nature of the data set: [3H]-vinblastine (VLB) accumulation assay. The format is cell-based. The conditions noted are these: midpoint of minimum and maximum increase in accumulation of 3H-vinblastine (275 nM), 3 hours at 37° C. How it is done:
^3 H-vinblastine accumulation was also measured in the CEM/VLB1000 cell line. Corning Easy-Wash 96 well plates were pretreated with PBS and 1% BSA for 60 minutes and then removed. CEM/VLB1000 cells were seeded at 2×10^5, 40 μL volume. Plates were incubated at 37° C. for 30-60 minutes prior to use. The reference reversing agent, verapamil, or the compound of the present invention was added to the well followed by addition of media containing ^3 H-vinblastine (final concentration=275nM). Plates were allowed to incubate for 3 hours at 37° C. Cells were harvested onto pretreated Wallace filtermats A (pretreated with 0.1% polyethyleneimine) using a TomTek harvester-96. After filtering, the filtermats were allowed to dry completely. Meltix B scintillant was then added to the filtermats. The filters were then placed in a 90° C. oven for approximately 3-5 minutes and then removed. Scintillant was allowed to solidify on the filtermats. Filtermats were then placed in sample bags and read on a Wallace BetaPlate scintillation counter. The effects of compounds of the present invention in the cytotoxicity potentiation assays and vinblastine (VLB) accumulation assay are given in the Table below:
^2 Values presented are the midpoint (EC50) of the minimum and
maximum increase in accumulation of ^3 Hvinblastine caused by the
specific compound of the present invention.

Data set [2] concerns CEM/VLB1000. Kind of data set: Cytotoxicity potentiation (alamar blue) of vinblastine in multidrug-resistant cells. The format is cell-based. The conditions noted are these: midpoint of minimum and maximum cytotoxicity induced by 3-5 μg/mL vinblastine and compound, 48 h. How it is done:
Multidrug-resistant cell lines are easily obtainable for in vitro determination of drug sensitization by compounds of the present invention. In vitro potentiation of antineoplastic cytotoxicity by the imidazole derivatives of the present invention was measured in both CEM/VLB1000 and SK/VLB1000 cell lines. The multidrug resistant cell lines were obtained from Dr. Victor Ling, Ontario Cancer Institute, Toronto, Canada. The CEM/VLB 1000 cell line was maintained as a suspension in minimum essential medium supplemented with 10% fetal bovine serum in a humidied atmosphere of 95% air and 5% CO2 while the SK/VLB 1000 cell line was maintained as adherent cells using the identical medium conditions as the CEM cells. The CEM/VLB 1000 cells were seeded at a density of 5×10^4 cells/well in a 96 well microtiter plate while the SK/VLB 1000 cell line was seeded at a density of 2,500 cells/well after trypsinization. Vinblastine (5 μg/mL, for the CEM cells) or Taxol (3 μg/mL, for the SK cells) and compound (0.01 to 50 μM) were added directly to the wells. After an incubation of 48 hours in presence of drug, alamar blue (B. Page et al., Int. J. Oncol. 3: 473-476, 1993) was added (10 μL to the 200 μL cell suspension) for a period of 24 hours after which the fluorescence (excitation=530 nm, emission=590 nm) was read for each well using a "CytoFluor" microtiter fluorometer plate reader. This assay measures the effective concentration of compound necessary to enhance the cytotoxicity (EC50) of vinblastine in the MDR cell line.
^1 Values presented are the midpoint (EC50) of the minimum and
maximum cytotoxicity induced by 3-5 μg/mL vinblastine and the specific
compound of the present invention.
(In general: Resazurin is reduced to fluorescent resorufin, in cell work by metabolically active cells.)

For `CC(C)OC(=O)/C=C/c1ccc(-c2nc(-c3ccc(N(C)C)cc3)c(-c3ccc(N(C)C)cc3)[nH]2)cc1` [Example 38, 2-[4-(trans-i-propylpropenoate)phenyl]-4,5-bis[(4-N,N-dimethylamino)phenyl]imidazole], the EC50 is 2.4 µM in the data set on CEM/VLB1000 [1] and 0.138 µM with CEM/VLB1000 [2].

On to `CN(C)c1ccc(-c2nc(-c3ccc(/C=C/C(=O)OC(C)(C)C)cc3)[nH]c2-c2ccc(N(C)C)cc2)cc1` [Example 39, 2-[4-(trans-t-butylpropenoate)phenyl]-4,5-bis[(4-N,N-dimethylamino)phenyl] imidazole], for which the concentration for a half-maximal effect (EC50) in the data set with CEM/VLB1000 [1] is 4.5 µM; with CEM/VLB1000 [2] it was 0.59 µM.

Turning to `CCN(CC)c1ccc(-c2[nH]c(-c3ccc(/C=C/C(=O)OC)cc3)nc2-c2ccc(NC)cc2)cc1` [Example 40, 2-[4-(trans-methylpropenoate)phenyl]-4-[(4-N,N-diethylamino)phenyl]-5-[(4-N-methylamino)phenyl] imidazole], the EC50 with CEM/VLB1000 [1] is 1.1 µM; in the data set with CEM/VLB1000 [2], 0.226 µM.

For the compound `CCN(CC)c1ccc(-c2nc(-c3ccc(/C=C/C(=O)OC(C)C)cc3)[nH]c2-c2ccc(NC)cc2)cc1` [Example 41, 2-[4-(trans-i-propylpropenoate)phenyl]-4-[(4-N,N-diethylamino)phenyl]-5-[(4-N-methylamino)phenyl] imidazole], the values for the EC50 with CEM/VLB1000 [1] and in the data set with CEM/VLB1000 [2] were 6 µM and 0.42 µM, respectively.

Take `CNc1ccc(-c2[nH]c(-c3ccc(/C=C/C(=O)OC)cc3)nc2-c2ccc(N(C)C)cc2)cc1` [Example 42, 2-[4-(trans-methylpropenoate)phenyl]-4-[(4-N,N-dimethylamino)phenyl]-5-[(4-N-methylamino)phenyl] imidazole]: the results for the EC50 in the data set on CEM/VLB1000 [1] and in the data set on CEM/VLB1000 [2] were 1.1 µM and 0.17 µM, respectively.

As to `CCCN(C)c1ccc(-c2nc(-c3ccc(/C=C/C(=O)OC)cc3)[nH]c2-c2ccc(NC)cc2)cc1` [Example 43, 2-[4-(trans-methylpropenoate)phenyl]-4-[(4-N-methyl-N-propylamino)phenyl]-5-[(4-N-methylamino)phenyl] imidazole], the values for the EC50 in the data set with CEM/VLB1000 [1] and with CEM/VLB1000 [2] were 2.3 µM and 0.148 µM, respectively.

With `CCCN(CCC)c1ccc(-c2[nH]c(-c3ccc(/C=C/C(=O)OC)cc3)nc2-c2ccc(NC)cc2)cc1` [Example 44, 2-[4-(trans-methylpropenoate)phenyl]-4-[(4-N,N-dipropylamino)phenyl]-5-[(4-N-methylamino)phenyl] imidazole], the EC50 with CEM/VLB1000 [1] amounted to 1.4 µM; in the data set with CEM/VLB1000 [2], 0.165 µM.

For `CCCCN(CCCC)c1ccc(-c2[nH]c(-c3ccc(/C=C/C(=O)OC)cc3)nc2-c2ccc(NC)cc2)cc1` [Example 45, 2-[4-(trans-methylpropenoate)phenyl]-4-[(4-N,N-dibutylamino)phenyl]-5-[(4-N-methylamino)phenyl] imidazole], the EC50 in the data set with CEM/VLB1000 [1] was found to be 10 µM; in the data set on CEM/VLB1000 [2], 1.9 µM.

On to `CNc1ccc(-c2nc(-c3ccc(/C=C/C(=O)OC)cc3)[nH]c2-c2ccc(NC)cc2)cc1` [Example 46, 2-[4-(trans-methylpropenoate)phenyl]-4,5-bis(4-N-methylaminophenyl) imidazole], for which the figures for the EC50 in the data set on CEM/VLB1000 [1] and with CEM/VLB1000 [2] were 1.4 µM and 0.203 µM, respectively.

Turning to `CNc1ccc(-c2[nH]c(-c3ccc(/C=C/C(=O)OC)cc3)nc2-c2ccc(NC(C)C)cc2)cc1` [Example 47, 2-[4-(trans-methylpropenoate)phenyl]-4-[(4-N-i-propylamino)phenyl]-5-[(4-N-methylamino)phenyl] imidazole], the EC50 with CEM/VLB1000 [1] was 0.87 µM; in the data set on CEM/VLB1000 [2], 0.194 µM.

`CNc1ccc(-c2[nH]c(-c3ccc(/C=C/C(=O)OC)cc3)nc2-c2ccc(NC(C)(C)C)cc2)cc1` [Example 48, 2-[4-(trans-methylpropenoate)phenyl]-4-[(4-N-t-butylamino)phenyl]-5-[(4-N-methylamino)phenyl] imidazole]: the figures for the EC50 in the data set on CEM/VLB1000 [1] and in the data set with CEM/VLB1000 [2] were 1.2 µM and 0.24 µM, respectively.

In the case of `CCN(CC)c1ccc(-c2nc(-c3ccc(/C=C/C(=O)OC)cc3)[nH]c2-c2ccc(N(CC)CC)cc2)cc1` [Example 49, 2-[4-(trans-methylpropenoate)phenyl]-4,5-bis(4-N,N-diethylaminophenyl) imidazole], the EC50 in the data set with CEM/VLB1000 [1] is 5 µM; in the data set with CEM/VLB1000 [2], 0.675 µM.

Turning to `CCN(CC)c1ccc(-c2nc(-c3ccc(/C=C/C(=O)OC)cc3)[nH]c2-c2ccc(N(C)C)cc2)cc1` [Example 50, 2-[4-(trans-methylpropenoate)phenyl]-4-[(4-N,N-diethylamino)phenyl]-5-[(4-N,N-dimethylamino)phenyl] imidazole], the EC50 with CEM/VLB1000 [1] came to 4.9 µM; in the data set on CEM/VLB1000 [2] it was 0.225 µM.

Consider `COC(=O)/C=C/c1ccc(-c2nc(-c3ccc(N)cc3)c(-c3ccc(N(C)C)cc3)[nH]2)cc1` [Example 51, 2-[4-(trans-methylpropenoate)phenyl]-4-[(4-N,N-dimethylamino)phenyl]-5-(4-aminophenyl) imidazole], for which the EC50 amounted to 2.6 µM in the data set with CEM/VLB1000 [1] and 0.48 µM in the data set with CEM/VLB1000 [2].

Turning to `CCN(CC)c1ccc(-c2[nH]c(-c3ccc(/C=C/C(=O)OC)cc3)nc2-c2ccc(N)cc2)cc1` [Example 52, 2-[4-(trans-methylpropenoate)phenyl]-4-[(4-N,N-diethylamino)phenyl]-5-(4-aminophenyl) imidazole], the EC50 turned out to be 2.6 µM in the data set with CEM/VLB1000 [1] and 0.275 µM with CEM/VLB1000 [2].

For the compound `CNc1ccc(-c2nc(-c3ccc(/C=C/C(=O)OC)cc3)[nH]c2-c2ccc(F)cc2)cc1` [Example 53, 2-[4-(trans-methylpropenoate)phenyl]-4-[(4-N-methylamino)phenyl]-5-(4-fluorophenyl) imidazole], the results for the EC50 with CEM/VLB1000 [1] and in the data set on CEM/VLB1000 [2] were 6.5 µM and 0.63 µM, respectively.

For the compound `COC(=O)/C=C/c1cccc(-c2nc(-c3ccc(N(C)C)cc3)c(-c3ccc(N(C)C)cc3)[nH]2)c1` [Example 54, 2-[3-(trans-methylpropenoate)phenyl]-4,5-bis(4-N,N-dimethylaminophenyl) imidazole], the EC50 was determined as 4.8 µM in the data set with CEM/VLB1000 [1] and 0.256 µM in the data set with CEM/VLB1000 [2].

On to `COC(=O)/C=C/c1cc(-c2nc(-c3ccc(N(C)C)cc3)c(-c3ccc(N(C)C)cc3)[nH]2)ccc1OC` [Example 55, 2-[4-methoxy-3-(trans-methylpropenoate)phenyl]-4,5-bis(4-N,N-dimethylaminophenyl) imidazole], for which the EC50 turned out to be 6 µM in the data set on CEM/VLB1000 [1] and 0.37 µM in the data set on CEM/VLB1000 [2].

On to `COC(=O)/C=C/c1ccc(OC)c(-c2nc(-c3ccc(N(C)C)cc3)c(-c3ccc(N(C)C)cc3)[nH]2)c1` [Example 56, 2-[2-methoxy-5-(trans-methylpropenoate)phenyl]-4,5-bis(4-N,N-dimethylaminophenyl) imidazole], for which the EC50 worked out at 2.8 µM in the data set with CEM/VLB1000 [1] and 0.126 µM in the data set with CEM/VLB1000 [2].

Take `COC(=O)/C=C/c1cc(-c2nc(-c3ccc(N(C)C)cc3)c(-c3ccc(N(C)C)cc3)[nH]2)cc(OC)c1OC` [Example 57, 2-[3,4-dimethoxy-5-(trans-methylpropenoate)phenyl]-4,5-bis(4-N,N-dimethylaminophenyl) imidazole]: the EC50 in the data set with CEM/VLB1000 [1] was 2.8 µM; in the data set with CEM/VLB1000 [2], 0.453 µM.

With `CCOCCCc1ccc(-c2nc(-c3ccc(N(C)C)cc3)c(-c3ccc(N(C)C)cc3)[nH]2)cc1` [Example 69, 2-[4-(3-ethoxypropyl)phenyl]-4,5-bis[(4-N,N-dimethylamino)phenyl] imidazole], the EC50 with CEM/VLB1000 [2] is 0.21 µM.

As for `CCCCOc1ccc(-c2nc(-c3ccc(N(C)C)cc3)c(-c3ccc(N(C)C)cc3)[nH]2)cc1` [Example 70, 2-[4-butyloxyphenyl]-4,5-bis[(4-N,N-dimethylamino)phenyl] imidazole], the EC50 in the data set on CEM/VLB1000 [2] worked out at 0.43 µM.

Take `COCCOc1ccc(-c2nc(-c3ccc(N(C)C)cc3)c(-c3ccc(N(C)C)cc3)[nH]2)cc1` [Example 71, 2-[4-(2-methoxyethoxy)phenyl]-4,5-bis[(4-N,N-dimethylamino)phenyl] imidazole]: the concentration giving a half-maximal response (EC50) with CEM/VLB1000 [2] is 0.17 µM.

With `COCCOc1ccc(-c2nc(-c3ccc(N(C)C)cc3)c(-c3ccc(N(C)C)cc3)[nH]2)cc1OC` [Example 72, 2-[3-methoxy-4-(2-methoxyethoxy)-phenyl]-4,5-bis[(4-N,N-dimethylamino)phenyl] imidazole], in the data set on CEM/VLB1000 [2], the EC50 was determined as 0.16 µM.
